Source: patent US8039483B2, “Quinuclidine carbonate salts and medicinal composition thereof” (Chiesi Farmaceutici S.p.A., priority 2008, dated 2011)

Columns and labels:
[1] = Plasma stability in human plasma; assay type: in vitro ADME; settings: 37° C.
Description: (§1) Briefly 10 μl of a stock solution 250 μM of compound 1 in acetonitrile were added to 1 ml of rat and human plasma, and samples were incubated at 37° C. Plasma (50 μL) was taken after 0, 1 and 5 hours of incubation and added to 140 μl of acetonitrile with addition of verapamil as internal standard (250 ng/ml). Samples were analysed by HPLC-MS/MS analysis.
(§2) Plasma stability was calculated as percentage remaining after 1 and 5 hours by dividing the peak area at 1 or 5 hours by the area of the peak at time 0. […] The other compounds of the invention behave similarly.

[2] = Plasma stability in rat plasma; assay type: in vitro ADME; settings: 37° C.
Description: as §1, §2

Measured: plasma stability, percentage remaining

O=C(OC(c1cccc(F)c1)c1cccc(F)c1)O[C@H]1C[N+]2(CC(=O)c3cccs3)CCC1CC2.[Cl-] [Compound 1, (R)-3-[Bis-(3-fluoro-phenyl)-methoxycarbonyloxy]-1-(2-oxo-2-thiophen-2-yl-ethyl)-1-azonia-bicyclo[2.2.2]octane; chloride]
less than 2%: [1]; after 1 hour of incubation | [1]; after 5 hours of incubation | [2]; after 1 hour of incubation | [2]; after 5 hours of incubation
